Results reported in paper PMC6534341, “α-Synuclein–Confocal Nanoscanning (ASYN-CONA), a Bead-Based Assay for Detecting Early-Stage α-Synuclein Aggregation” (Analytical Chemistry, 2019).
Like-named read-outs stand apart in the source and are kept apart here.

Biological target: T1, α-synuclein (Homo sapiens, UniProt P37840, A91C)
T1 construct: gene SNCA
Experiment: ASYN-CONA on-bead aggregation assay (confocal bead ring intensity, […] EtOH, […] h)
Format: biochemical

Row | IC50 (read-out: IC50) | IC50 | Compound
1 | 2.76 ± 0.89 µM | – | COc1cc(/C=C/C(=O)CC(=O)/C=C/c2ccc(O)c(OC)c2)ccc1O [curcumin]
2 | 502 ± 360 µM | – | CO[C@H]1/C=C/O[C@@]2(C)Oc3c(C)c(O)c4c(O)c(c(/C=N/N5CCN(C)CC5)c(O)c4c3C2=O)NC(=O)/C(C)=C\C=C\[C@H](C)[C@H](O)[C@@H](C)[C@@H](O)[C@@H](C)[C@H](OC(C)=O)[C@@H]1C [rifampicin]
3 | – | 4.32 ± 0.6 µM | O=c1cc(-c2ccccc2)oc2cc(O)c(O)c(O)c12 [baicalein]
